In one data set the target is T1, F508del-CFTR (Homo sapiens, UniProt P13569, DEL508-508).
T1 construct: expressed in transfected cells; host or cells: CFBE41o- cells (CFBE F508del-CFTR), puromycin-selected
The experiment in a line: CFTR activation assay: short-circuit current measurements (Ussing chamber) in CFBE cells treated 24 h with CFTR modulator(s) plus compound. In kind it is cell-based. The conditions noted are these: for F508del-CFTR activity ('inhibition shift' induced by CFTR-172) in reference to the CFTR activity induced by Trikafta® alone (value=100): substance with R1 = [drawing 9], CFBE cells, with Trikafta®; for F508del-CFTR activity as percentage of F508del-CFTR activity in the presence of Trikafta alone (100%): CFE cells, with Trikafta. Here is the method: • FIG 1. represents the conductance measurement as a function of time for assessing the activity of F508del-CFTR in CFBE cells using the Ussing chamber as set forth in example 13. Cells are incubated for 24 hours with either Trikafta® alone or Trikafta® + a compound of formula (I) as defined herein after. Conductance is measured as a function of time. […] This is the measure which are reported in all Tables shown below. • FIG 2. The correcting effect of Trikafta® on F508del-CFTR in a pulmonary epithelial cell line derived from a F508del-CFTR CF patient was tested as set forth in example 13 herein after in the presence of increasing concentrations of compound (44) as defined herein after and compound (107) as defined herein after. Dose-response curves were built from the activation and inhibition data (see FIG. 1). 100% represents the activity of Trikafta® alone. • FIG 3. […] CFE cells were treated with Trikafta® 100%, 33%, or 11%, in the absence or presence of 1 µM of compound (107). F508del-CFTR activity was monitored as described in the Experimental section and above. Activity is reported as percentage of δF508del-CFTR activity in the presence of Trikafta® alone (100%). The fold change over the activity of Trikafta® alone is indicated in parentheses. • FIG 4. The correcting effect of further CFTR modulators than Trikafta®, i.e. Galapagos compounds as defined herein after (GLPG 222 (G1), GLPG 1837 (G2), GLPG 2451 (G3)) (1 µM each) on F508del-CFTR in a pulmonary epithelial cell line derived from a F508del-CFTR CF patient was tested as set forth in example 13 herein after in the presence of increasing concentrations of compound (107) as defined herein after. Dose-response curves were built from the activation and inhibition data (see FIG. 1). 100% represents the activity of each CFTR modulator alone.
The activity of F508del-CFTR was indeed estimated according to the method described below in example 13. This method makes use of CFBE cells, an immortalized cell line generated from bronchial epithelium of a CF patient homozygous for F508del-CFTR [Kunzelmann, K. et al., 1993. An immortalized cystic fibrosis tracheal epithelial cell line homozygous for the F508del CFTR mutation. Am. J. Respir. Cell Mol. Biol. 8, 522-529.]. Cells are exposed for 24 hours to a combination of Trikafta® and a compound of formula (I) as defined herein after to be evaluated, and the activity of F508del-CFTR is measured by conductance in a Ussing chamber. The activation is initiated by addition of Forskolin (1 µM). […] All compounds tested were evaluated in combination with Trikafta®. In most instances, compounds were tested in triplicates at 0.1, 1 and 10 µM.
Wild-type CFBE cells (containing full-length, unmutated CFTR) are used as a reference.
F508del-CFTR expressing cells used in this present study were treated with CFTR modulators 24 h prior the experiments. The following CFTR modulators were used: Vx770 (Ivacaftor) (Selleckchem, S 1144) (Selleckchem, 24, rue des Tuileries, BP684, 67460 Souffelweyersheim, France), Vx445 (Elexacaftor) (Selleckchem, SE-S8851), Vx661 (Tezacaftor) (TargetMol, HY-15448) (TargetMol, Tebu-bio, 39 rue de Houdan, BP 15, 78612 Le-Perray-en-Yvelines cedex, France). Trikafta® is the combination of 1 µM Vx770, 3 µM Vx 445 and […] Vx661.
CFBE cell line stably expressing F508del-CFTR or WT-CFTR (CFBE WT-CFTR) were grown at 37°C in 5% CO2 - 95% air and media was replaced every 2 days.

Another data set has as its target CLK4 (Homo sapiens, UniProt Q9HAZ1). The experiment in a line: Kinase inhibition, dose-response. In kind it is biochemical. The text has this:
All compounds were additionally tested over a range of concentrations for their ability to inhibit a series of 14 kinases. […] Their F508del-CFTR activity is reported as percentage of F508del-CFTR activity in the presence of Trikafta alone (100%).

The target in a further data set is CK1α1 (Homo sapiens, UniProt P48729). The experiment in a line: Kinase inhibition, dose-response. In kind it is biochemical. The conditions noted are these: > 10: no inhibition at 10 µM, the highest dose tested. Here is the method: (§1) All compounds were additionally tested over a range of concentrations for their ability to inhibit a series of 14 kinases. IC50 values were calculated from the dose-response curves and are reported in µM. > 10, no inhibition at 10 µM, the highest dose tested (see table 6 below). [drawing 409] Table 5: CFE cells were treated with Trikafta in the presence of increasing concentrations of various compounds and their N7-methylated counterparts. Their F508del-CFTR activity is reported as percentage of F508del-CFTR activity in the presence of Trikafta alone (100%).

The next data set has as its target CDK2 (Homo sapiens, UniProt P24941). The experiment in a line: Kinase inhibition, dose-response. In kind it is biochemical. The settings on record: > 10: no inhibition at 10 µM, the highest dose tested. Here is the method: as §1
In a further data set the target is CLK1 (Homo sapiens, UniProt P49759). The experiment in a line: Kinase inhibition, dose-response. The conditions noted are these: > 10: no inhibition at 10 µM, the highest dose tested. In kind it is biochemical. Here is the method: as §1
A further data set has as its target CK1γ3 (Homo sapiens, UniProt Q9Y6M4). The experiment in a line: Kinase inhibition, dose-response. It is filed as biochemical. The conditions noted are these: > 10: no inhibition at 10 µM, the highest dose tested. Here is the method:
as §1

For a further data set, the target named is CDK7 (Homo sapiens, UniProt P50613). The experiment in a line: Kinase inhibition, dose-response. It is filed as biochemical. The conditions noted are these: > 10: no inhibition at 10 µM, the highest dose tested. Here is the method: as §1
For the next data set, the target named is CK1δ (Homo sapiens, UniProt P48730). The experiment in a line: Kinase inhibition, dose-response. In kind it is biochemical. The settings on record: > 10: no inhibition at 10 µM, the highest dose tested. Here is the method: as §1
A further data set has as its target CLK3 (Homo sapiens, UniProt P49761). The experiment in a line: Kinase inhibition, dose-response. It is filed as biochemical. The settings on record: > 10: no inhibition at 10 µM, the highest dose tested. Here is the method: as §1
The next data set addresses CDK9 (Homo sapiens, UniProt P50750). The experiment in a line: Kinase inhibition, dose-response. In kind it is biochemical. The settings on record: > 10: no inhibition at 10 µM, the highest dose tested. Here is the method: as §1
The target in the next data set is DYRK1A (Homo sapiens, UniProt Q13627). The experiment in a line: Kinase inhibition, dose-response. It is filed as biochemical. The settings on record: > 10: no inhibition at 10 µM, the highest dose tested. Here is the method:
as §1

A further data set has as its target CK1γ1 (Homo sapiens, UniProt Q9HCP0). The experiment in a line: Kinase inhibition, dose-response. The settings on record: > 10: no inhibition at 10 µM, the highest dose tested. It is filed as biochemical. Here is the method:
as §1

The target in the next data set is CK1γ2 (Homo sapiens, UniProt P78368). The experiment in a line: Kinase inhibition, dose-response. It is filed as biochemical. The conditions noted are these: > 10: no inhibition at 10 µM, the highest dose tested. Here is the method: as §1
The target of a further data set is CK1ε (Homo sapiens, UniProt P49674). The experiment in a line: Kinase inhibition, dose-response. The conditions noted are these: > 10: no inhibition at 10 µM, the highest dose tested. In kind it is biochemical. Here is the method:
as §1

The next data set concerns the target CLK2 (Homo sapiens, UniProt P49760). The experiment in a line: Kinase inhibition, dose-response. The settings on record: > 10: no inhibition at 10 µM, the highest dose tested. It is filed as biochemical. Here is the method:
as §1

The next data set is described as follows: LogD determined by HPLC. In kind it is physicochemical.

Where two headings read alike, the source gives them in different places.

Chain of CLK2 (P49760 whole entry, species assumed): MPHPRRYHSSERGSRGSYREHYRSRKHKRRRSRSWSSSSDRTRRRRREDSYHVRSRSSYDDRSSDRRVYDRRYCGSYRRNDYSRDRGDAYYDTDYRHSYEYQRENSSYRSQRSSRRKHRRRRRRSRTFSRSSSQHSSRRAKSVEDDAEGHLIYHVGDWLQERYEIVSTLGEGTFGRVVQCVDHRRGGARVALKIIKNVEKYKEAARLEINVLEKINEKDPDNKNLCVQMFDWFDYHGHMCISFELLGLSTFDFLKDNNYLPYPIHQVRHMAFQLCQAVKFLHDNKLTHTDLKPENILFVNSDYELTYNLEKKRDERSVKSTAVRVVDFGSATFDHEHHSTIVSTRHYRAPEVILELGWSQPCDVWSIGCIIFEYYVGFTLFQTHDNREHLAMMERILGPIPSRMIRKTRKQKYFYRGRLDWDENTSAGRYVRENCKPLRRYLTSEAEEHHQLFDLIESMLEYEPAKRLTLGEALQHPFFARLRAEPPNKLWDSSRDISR
Chain of CLK1 (P49759 whole entry): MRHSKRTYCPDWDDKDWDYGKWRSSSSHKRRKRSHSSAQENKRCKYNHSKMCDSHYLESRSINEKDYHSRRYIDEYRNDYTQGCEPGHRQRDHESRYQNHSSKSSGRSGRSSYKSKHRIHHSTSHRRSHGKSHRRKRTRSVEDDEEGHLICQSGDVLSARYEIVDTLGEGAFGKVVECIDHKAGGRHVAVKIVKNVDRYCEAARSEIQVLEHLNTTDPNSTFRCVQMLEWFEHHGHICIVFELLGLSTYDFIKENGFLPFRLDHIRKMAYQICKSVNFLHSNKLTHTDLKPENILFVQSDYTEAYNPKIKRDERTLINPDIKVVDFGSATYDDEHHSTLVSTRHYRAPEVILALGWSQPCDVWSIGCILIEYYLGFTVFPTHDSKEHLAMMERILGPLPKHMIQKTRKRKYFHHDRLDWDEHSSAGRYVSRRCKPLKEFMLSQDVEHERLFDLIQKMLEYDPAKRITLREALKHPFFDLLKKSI
Chain of CDK7 (P50613 whole entry, species assumed): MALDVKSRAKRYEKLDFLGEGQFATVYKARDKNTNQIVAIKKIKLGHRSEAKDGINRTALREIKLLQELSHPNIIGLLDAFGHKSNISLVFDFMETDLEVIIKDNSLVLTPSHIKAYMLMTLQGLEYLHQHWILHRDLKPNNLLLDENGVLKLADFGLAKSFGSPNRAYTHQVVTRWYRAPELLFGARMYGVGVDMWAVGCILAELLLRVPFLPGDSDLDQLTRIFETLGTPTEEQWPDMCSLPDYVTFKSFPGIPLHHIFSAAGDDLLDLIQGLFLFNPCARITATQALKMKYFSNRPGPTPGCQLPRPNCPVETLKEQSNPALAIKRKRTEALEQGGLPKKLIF
Chain of CDK7 (P51946 whole entry partner, species assumed): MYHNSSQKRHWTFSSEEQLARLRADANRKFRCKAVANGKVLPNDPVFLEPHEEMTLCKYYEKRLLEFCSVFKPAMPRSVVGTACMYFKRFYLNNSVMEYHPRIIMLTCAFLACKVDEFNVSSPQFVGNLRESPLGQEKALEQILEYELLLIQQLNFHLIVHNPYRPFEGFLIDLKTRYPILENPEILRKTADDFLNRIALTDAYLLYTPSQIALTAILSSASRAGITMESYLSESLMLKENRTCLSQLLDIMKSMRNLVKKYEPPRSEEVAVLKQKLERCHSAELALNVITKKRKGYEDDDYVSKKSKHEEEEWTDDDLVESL
Chain of CDK7 (P51948 whole entry partner, species assumed): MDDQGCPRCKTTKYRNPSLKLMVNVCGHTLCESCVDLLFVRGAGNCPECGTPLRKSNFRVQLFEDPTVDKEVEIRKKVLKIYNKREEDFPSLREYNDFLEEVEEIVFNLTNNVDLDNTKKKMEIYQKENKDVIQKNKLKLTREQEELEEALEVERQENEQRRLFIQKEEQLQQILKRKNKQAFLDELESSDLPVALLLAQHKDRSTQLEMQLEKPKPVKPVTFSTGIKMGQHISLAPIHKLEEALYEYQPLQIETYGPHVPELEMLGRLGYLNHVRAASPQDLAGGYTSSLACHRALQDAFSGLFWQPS
Chain of CLK4 (Q9HAZ1 whole entry, species assumed): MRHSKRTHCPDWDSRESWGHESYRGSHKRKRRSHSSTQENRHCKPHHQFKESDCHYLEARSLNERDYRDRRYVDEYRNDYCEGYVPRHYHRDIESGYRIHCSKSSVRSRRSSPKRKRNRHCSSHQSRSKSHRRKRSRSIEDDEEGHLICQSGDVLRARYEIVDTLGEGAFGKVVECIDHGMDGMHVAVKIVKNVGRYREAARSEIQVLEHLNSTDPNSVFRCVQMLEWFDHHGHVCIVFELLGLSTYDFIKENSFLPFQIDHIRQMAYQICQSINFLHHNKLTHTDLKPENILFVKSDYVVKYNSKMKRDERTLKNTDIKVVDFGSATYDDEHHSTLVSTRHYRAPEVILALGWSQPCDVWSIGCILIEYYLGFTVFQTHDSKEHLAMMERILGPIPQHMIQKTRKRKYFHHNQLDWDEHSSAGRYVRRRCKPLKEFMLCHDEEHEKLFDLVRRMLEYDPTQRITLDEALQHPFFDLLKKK
Chain of CK1γ2 (P78368 whole entry): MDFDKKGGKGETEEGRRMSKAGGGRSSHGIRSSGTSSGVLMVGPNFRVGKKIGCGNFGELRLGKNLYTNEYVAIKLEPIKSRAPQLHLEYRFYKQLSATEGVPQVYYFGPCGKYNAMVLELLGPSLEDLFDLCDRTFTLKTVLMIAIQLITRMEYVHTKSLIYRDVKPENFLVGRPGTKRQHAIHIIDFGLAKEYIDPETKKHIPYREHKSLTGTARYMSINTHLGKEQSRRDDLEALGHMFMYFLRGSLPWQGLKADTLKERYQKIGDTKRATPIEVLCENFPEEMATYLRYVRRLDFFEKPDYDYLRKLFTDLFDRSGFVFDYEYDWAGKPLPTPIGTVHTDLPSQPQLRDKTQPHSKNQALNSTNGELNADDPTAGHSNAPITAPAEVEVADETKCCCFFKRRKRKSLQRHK
Chain of CDK9 (P50750 whole entry, species assumed): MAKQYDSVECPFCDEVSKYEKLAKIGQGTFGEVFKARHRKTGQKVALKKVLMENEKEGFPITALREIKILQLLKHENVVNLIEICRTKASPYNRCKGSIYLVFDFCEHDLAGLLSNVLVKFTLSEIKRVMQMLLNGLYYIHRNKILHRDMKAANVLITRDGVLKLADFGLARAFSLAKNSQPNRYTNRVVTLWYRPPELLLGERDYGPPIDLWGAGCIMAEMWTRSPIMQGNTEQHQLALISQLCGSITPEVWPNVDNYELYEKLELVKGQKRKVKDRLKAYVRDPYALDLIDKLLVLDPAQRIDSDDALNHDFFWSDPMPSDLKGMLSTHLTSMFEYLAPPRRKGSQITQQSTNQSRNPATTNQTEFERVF
Chain of CDK9 (O60563 whole entry partner, species assumed): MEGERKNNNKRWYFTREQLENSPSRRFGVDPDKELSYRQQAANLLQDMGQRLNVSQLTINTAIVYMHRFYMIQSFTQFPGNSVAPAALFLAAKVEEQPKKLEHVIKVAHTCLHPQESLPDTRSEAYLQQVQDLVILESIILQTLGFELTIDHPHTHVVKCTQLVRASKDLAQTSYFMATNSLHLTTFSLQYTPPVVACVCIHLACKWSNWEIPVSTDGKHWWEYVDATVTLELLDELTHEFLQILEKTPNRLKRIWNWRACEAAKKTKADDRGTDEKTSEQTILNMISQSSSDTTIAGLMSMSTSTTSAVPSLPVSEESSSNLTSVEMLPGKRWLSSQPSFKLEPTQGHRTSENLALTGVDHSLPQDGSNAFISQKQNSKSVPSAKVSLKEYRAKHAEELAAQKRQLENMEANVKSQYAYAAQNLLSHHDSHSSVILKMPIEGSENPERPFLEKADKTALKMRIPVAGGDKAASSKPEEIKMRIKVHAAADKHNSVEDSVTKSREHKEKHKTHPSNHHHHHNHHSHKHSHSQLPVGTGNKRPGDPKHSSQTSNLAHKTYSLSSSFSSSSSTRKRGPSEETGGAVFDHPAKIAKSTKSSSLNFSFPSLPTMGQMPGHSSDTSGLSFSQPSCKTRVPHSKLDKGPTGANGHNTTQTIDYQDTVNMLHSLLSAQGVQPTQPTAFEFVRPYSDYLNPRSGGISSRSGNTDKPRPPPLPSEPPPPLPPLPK
Chain of CK1ε (P49674 whole entry): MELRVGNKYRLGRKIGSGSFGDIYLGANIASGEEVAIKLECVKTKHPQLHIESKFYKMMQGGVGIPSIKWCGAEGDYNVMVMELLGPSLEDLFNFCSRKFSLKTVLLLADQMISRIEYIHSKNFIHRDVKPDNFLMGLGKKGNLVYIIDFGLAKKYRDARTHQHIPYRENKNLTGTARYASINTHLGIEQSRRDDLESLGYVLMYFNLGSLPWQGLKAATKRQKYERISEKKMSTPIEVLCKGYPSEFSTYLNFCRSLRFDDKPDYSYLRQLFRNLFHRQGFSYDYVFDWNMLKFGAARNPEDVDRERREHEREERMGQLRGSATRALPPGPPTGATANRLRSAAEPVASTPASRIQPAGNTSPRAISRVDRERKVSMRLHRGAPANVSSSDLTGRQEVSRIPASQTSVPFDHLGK
Chain of CK1α1 (P48729 whole entry): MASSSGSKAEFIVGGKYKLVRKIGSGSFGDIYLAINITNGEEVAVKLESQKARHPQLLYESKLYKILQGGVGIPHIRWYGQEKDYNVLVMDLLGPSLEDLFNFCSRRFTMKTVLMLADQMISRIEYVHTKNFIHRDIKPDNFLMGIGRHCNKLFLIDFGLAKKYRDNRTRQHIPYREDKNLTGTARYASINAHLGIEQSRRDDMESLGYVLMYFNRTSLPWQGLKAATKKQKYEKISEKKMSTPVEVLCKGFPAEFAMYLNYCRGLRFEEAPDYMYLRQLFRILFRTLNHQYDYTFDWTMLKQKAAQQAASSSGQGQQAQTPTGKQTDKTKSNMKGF

As to `CC(C)n1cnc2c(NCc3ccccc3)cc(N[C@@H]3CCOC3)nc21` [(A), reference compound], the entries for the “F508del-CFTR activity ('inhibition shift' induced by CFTR-172) in reference to the CFTR activity induced by Trikafta® alone (value=100)” value on F508del-CFTR (C 0.1 µM), on F508del-CFTR (C 1 µM) and at F508del-CFTR (C 10 µM) were 82.7, 107.8 and 114.5, respectively.

Take `CC(C)c1cnn2c(NCc3ccccc3)nc(N[C@@H]3CCOC3)nc12` [(C), reference compound]: the “F508del-CFTR activity ('inhibition shift' induced by CFTR-172) in reference to the CFTR activity induced by Trikafta® alone (value=100)” value at F508del-CFTR (C 0.1 µM) turned out to be 109.7; at F508del-CFTR (C 1 µM), 99.5; on F508del-CFTR (C 10 µM) it was 116.1.

`CC(C)c1cnn2c(NCc3ccccc3)cc(N[C@@H]3CCOC3)nc12` [(D), reference compound]: the “F508del-CFTR activity ('inhibition shift' induced by CFTR-172) in reference to the CFTR activity induced by Trikafta® alone (value=100)” value on F508del-CFTR (C 0.1 µM) came out at 98.0; at F508del-CFTR (C 1 µM) it was 110.1; at F508del-CFTR (C 10 µM) it was 98.7.

The term IC50 denotes the concentration that inhibits the measured activity by half. As to `CC(C)c1cnc2c(NCc3ccccc3)nc(N[C@@H]3CCOC3)nn12` [compound 19, N4-Benzyl-7-isopropyl-N2-[(3R)-tetrahydrofuran-3-yl]imidazo[2,1-f][1,2,4]triazine-2,4-diamine], the “F508del-CFTR activity as percentage of F508del-CFTR activity in the presence of Trikafta alone (100%)” value on F508del-CFTR (concentration 0.1 µM) was 112.0%; on F508del-CFTR (concentration 1 µM), 122.2%; at F508del-CFTR (concentration 10 µM) it was 155.6%. For the same compound, the IC50 at CLK4 (> 10: no inhibition at 10 µM, the highest dose tested, read-out: IC50 CLK4) was 1840 nM; on CK1α1, over 10 µM; at CDK2 it was 1280 nM; on CLK1, 1170 nM; on CK1γ3, over 10 µM; on CDK7 it was 496 nM. For the same compound, the half-maximal inhibitory concentration (IC50) was 594 nM against CK1δ; over 10 µM on CLK3; 3.18 µM on CDK9; over 10 µM against DYRK1A; over 10 µM against CK1γ1; over 10 µM on CK1γ2. In addition, the IC50 on CK1ε stood at 1320 nM; at CLK2, 1050 nM.

For `CC(C)c1cnc2c(N(C)Cc3ccccc3)nc(N[C@@H]3CCOC3)nn12` [compound 32], the figures for the “F508del-CFTR activity as percentage of F508del-CFTR activity in the presence of Trikafta alone (100%)” value on F508del-CFTR (concentration 0.1 µM), on F508del-CFTR (concentration 1 µM) and on F508del-CFTR (concentration 10 µM) were 117.9%, 113.7% and 135.1%, respectively. For the same compound, the 50% inhibitory concentration (IC50) at CLK4 (read-out: IC50 CLK4, > 10: no inhibition at 10 µM, the highest dose tested) is over 10000 nM; against CK1α1, over 10 µM; against CDK2, over 10000 nM; against CLK1 it was over 10000 nM; on CK1γ3, over 10 µM; against CDK7 it was over 10000 nM. For the same compound, the IC50 at CK1δ is over 10000 nM; on CLK3, over 10 µM; against CDK9 it was over 10 µM; at DYRK1A, over 10 µM; on CK1γ1 it was over 10 µM; against CK1γ2, over 10 µM. In addition, the IC50 at CK1ε and on CLK2 was over 10000 nM each time.

For the compound `CC(C)c1cnc2c(NCc3ccccc3)nc(NC3CCOCC3)nn12` [compound 44], the IC50 against CLK4 is 580 nM; on CK1α1, over 10 µM; on CDK2 it was 579 nM; at CLK1 it was 537 nM; at CK1γ3 it was over 10 µM; against CDK7, 207 nM. Moreover, the IC50 at CK1δ was 626 nM; on CLK3, over 10 µM; on CDK9 it was 1.17 µM; against DYRK1A, 6.53 µM; on CK1γ1, over 10 µM; at CK1γ2 it was over 10 µM. The IC50 at CK1ε is 1730 nM; against CLK2, 493 nM.

The term chromatographic logD denotes a lipophilicity value derived from retention on a column. Take `CC(C)c1cnc2c(NCc3ccccc3)nc(Nc3ccnn3C)nn12` [compound 107, N4-Benzyl-7-isopropyl-N2-(2-methylpyrazol-3-yl)imidazo[2,1-f][1,2,4]triazine-2,4-diamine]: on F508del-CFTR (Trikafta® 100%, 33% or 11%, absence or presence of 1 µM compound, FIG 3), the “F508del-CFTR activation with diluted Trikafta®” value was “compensates the dilution of Trikafta®”. The chromatographic logD in the data set “LogD determined by HPLC” worked out at 2.98.

Compound `CC(C)c1cnc2c(NCc3ccccc3)nc(NCc3ccncc3)nn12` [compound 125, N4-Benzyl-7-isopropyl-N2-(4-pyridylmethyl)imidazo[2,1-f][1,2,4]triazine-2,4-diamine] registered a chromatographic logD in “LogD determined by HPLC” of 3.07.

With `Cc1cnc(CNc2nc(NCc3ccccc3)c3ncc(C(C)C)n3n2)cn1` [compound 126], the chromatographic logD in the data set “LogD determined by HPLC” is 3.

`Cc1cc(C)nc(CNc2nc(NCc3ccccc3)c3ncc(C(C)C)n3n2)n1` [compound 127, N4-Benzyl-N2-[(4,6-dimethylpyrimidin-2-yl)methyl]-7-isopropyl-imidazo[2,1-f][1,2,4]triazine-2,4-diamine]: the chromatographic logD in the data set “LogD determined by HPLC” turned out to be 3.28.
